For one test, the target named is T1, BTK kinase (Homo sapiens, UniProt Q06187).
T1 construct: purchased Invitrogen PR5442A
T1 sequence (Q06187 whole entry): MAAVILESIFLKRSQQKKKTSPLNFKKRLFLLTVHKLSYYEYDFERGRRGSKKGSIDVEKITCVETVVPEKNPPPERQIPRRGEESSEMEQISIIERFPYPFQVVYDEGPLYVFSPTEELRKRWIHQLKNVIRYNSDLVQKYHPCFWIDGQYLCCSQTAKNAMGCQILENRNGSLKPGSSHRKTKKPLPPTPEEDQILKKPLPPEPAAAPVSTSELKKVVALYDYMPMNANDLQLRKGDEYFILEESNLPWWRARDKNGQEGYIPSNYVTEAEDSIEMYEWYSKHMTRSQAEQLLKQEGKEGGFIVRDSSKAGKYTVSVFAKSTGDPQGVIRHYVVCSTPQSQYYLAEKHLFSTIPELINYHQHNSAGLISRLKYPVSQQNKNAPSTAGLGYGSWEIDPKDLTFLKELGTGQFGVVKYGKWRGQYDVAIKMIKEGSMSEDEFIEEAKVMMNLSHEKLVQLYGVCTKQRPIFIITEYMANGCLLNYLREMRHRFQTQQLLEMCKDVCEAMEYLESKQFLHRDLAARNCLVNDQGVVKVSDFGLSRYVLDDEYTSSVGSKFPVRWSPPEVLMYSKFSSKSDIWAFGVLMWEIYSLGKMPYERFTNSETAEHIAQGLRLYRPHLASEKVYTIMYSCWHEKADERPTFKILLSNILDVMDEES
The experiment in a line: Assay of inhibition activity of BTK in vitro (HTRF kit, read on Envision).
Details: not given
It counts as biochemical. The protocol:
Assay of Inhibition Activity of BTK In Vitro
The inhibition of compounds on BTK kinase was evaluated by […] detected by Envision, using the IC50 value of the compounds as index.
BTK kinase: Invitrogen-PR5442A
HTRF Assay Kit: Cisbio-62TKOPEJ
Plate for compound preparation: Greiner-781280
Cisbio HTRF Kit: Cisbio-62TKOPEJ
Centrifuge: Eppendorf-5810R
Bravo: Agilent Technologies-Bravo
Gradient Dilution of Compounds: […]
The test compound was dissolved with DMSO to be of 1 mM as a stock solution. Such a stock solution was diluted with DMSO by 10-fold, thereby obtaining an initial solution in a concentration of […] which was added into wells at the second column in a plate. 20 μL DMSO was added to other wells using Bravo. Then, 10 μL of the initial solution was transferred from wells at the second column to wells at the third column, followed by mixing obtained solution in the wells at the third column, thereby obtain a first diluted solution in a concentration of 1/3 μM. Subsequently, 10 μL of the first diluted solution was further transferred from wells at the third column to wells at the fourth column, followed by mixing obtained solution in the wells at the fourth column, thereby obtain a second diluted solution in a concentration of 1/9 μM. Such a three-fold serial dilution was performed 10 times, with 11 solutions in series diluted concentrations and a final diluted solution in a concentration of 0.017 nM obtained.
All diluted solutions were further diluted by 25-fold with ultrapure water, thus obtain test solutions, which were equilibrated at r.t. for 30 min before use.
To 2.5 μL of test solution, which was pipetted into each well of Assay plate using Bravo, 5 μL kinase mixture was added using the multi-channel pipettor. The mixture was centrifuged at 1000 rpm for 20 s, followed by incubation at 23° C. for 30 min. The reaction was initiated by 2.5 μL ATP mixture which was pipetted into the wells by Multidrop.
The reaction mixture of BTK kinase (10 μL) included 1.0 nM BTK, 1 μM biotin-TK1 peptide and 20 μM ATP. The reaction buffer included 50 mM Hepes (pH7.5), 10 mM MgCl2 and 0.01 mM […]. The kinase mixture was reacted in incubator at 23° C. for 90 mim.
The reaction was stopped by adding 10 μL Detection Reagent to each well of Assay plate, and the plate was left in incubator at 23° C. for 1 h before read on Envision.
Data analysis: The IC50 values of compounds were calculated using Excel fit.
In turn, `CN1CCN(c2ccc(Nc3cc(-c4ccc5c(c4)c(C(=O)c4ccc(C6CC6)cc4F)cn5C)cn(C)c3=O)nc2)CC1` [Example 5] yielded a concentration for half-maximal inhibition (IC50) of 1 to 10 µM.

Still in this test, the particulars now being: 1.0 nM BTK, 1 μM biotin-TK1 peptide, 20 μM ATP, 23° C., tested by Envision; read-out: BTK IC50.
Regarding `N#CC(=CC1CC1)C(=O)N1CCC[C@@H](n2nc(-c3ccc(Oc4ccccc4)cc3)c3c(N)n[nH]c(=O)c32)C1` [Example 76], the IC50 was less than 0.1 µM. The same measure, in the same setting: the same measure for `C=CC(=O)N1CCCC(n2nc(-c3ccc(Oc4ccc(C)cc4)cc3)c3c(N)n[nH]c(=O)c32)C1` (stereo not shown) [Example 55]: less than 0.1 µM; for `C=CC(=O)N1CCCCC(n2nc(-c3ccc(Oc4ccccc4)cc3)c3c(N)n[nH]c(=O)c32)C1` (stereo not shown) [Example 51]: less than 0.1 µM. `CN(C)C/C=C/C(=O)N1CCC[C@@H](n2nc(-c3ccc(Oc4ccccc4)cc3)c3c(N)n[nH]c(=O)c32)C1` [Example 81]: the IC50 was less than 0.1 µM. The same measure, in the same setting: as for `C=CC(=O)N1CCCC(n2nc(-c3ccc(Oc4ccccc4)cc3)c3cc4c(N)ncnc4cc32)C1` (stereo not shown) [Example 108], the figure is 1 to 10 µM; as for `C=CC(=O)N1CCCC(n2nc(-c3ccc(Oc4ccccc4)cc3)c3c(N)noc(=O)c32)C1` (stereo not shown) [Example 70], 1 to 10 µM. The same measure, in the same setting: as for `C=CC(=O)N1CCC[C@@H](n2nc(-c3ccc(-n4cc5ccccc5n4)cc3)c3c(N)n[nH]c(=O)c32)C1` [Example 48], the figure is less than 0.1 µM; as for `C=CC(=O)N1CCCC(n2nc(-c3ccc(Oc4ccccc4)nc3)c3c(N)n[nH]c(=O)c32)C1` (stereo not shown) [Example 72], less than 0.1 µM; as for `C=CC(=O)N(C)[C@H]1CC[C@@H](n2nc(-c3ccc(Oc4ccccc4)cc3)c3c(N)n[nH]c(=O)c32)CC1` [Example 82], less than 0.1 µM. On to `C=CC(=O)N[C@H]1CC[C@@H](n2nc(-c3ccc(Oc4ccccc4)cc3)c3c(N)n[nH]c(=O)c32)CC1` [Example 57], for which the IC50 was less than 0.1 µM. On to `C=CC(=O)N1CCCC(n2nc(-c3ccc(Oc4ccccc4F)cc3)c3c(N)n[nH]c(=O)c32)C1` (stereo not shown) [Example 71], for which the IC50 is less than 0.1 µM.

In the case of `C=CC(=O)Nc1cccc(-n2cnc3cnc(Nc4ccc(OCCOC)cc4)nc32)c1` [Example 24], the IC50 lay in the range of 1 to 10 µM.

Take `C=CC(=O)N1CCCC(n2nc(-c3ccc(Oc4ccccc4)cc3)c3c(N)nn(CC(F)(F)F)c(=O)c32)C1` (stereo not shown) [Example 87]: the 50% inhibitory concentration (IC50) fell in the range of 1 to 10 µM.

As for `CN(C)C/C=C/C(=O)N1CCC[C@@H](n2nc(-c3ccc(OC4Cc5ccccc5C4)cc3)c3c(N)n[nH]c(=O)c32)C1` [Example 75], the IC50 was less than 0.1 µM. Still for that read-out and setting: the same measure for `C=CC(=O)N1CCCC(n2nc(-c3ccc(Oc4ccccc4)cc3)c3c(N)n[nH]c(=O)c32)C1` (stereo not shown) [Example 20]: less than 0.1 µM; for `C=CC(=O)N1CCC[C@@H](n2cc(-c3ccc(Oc4ccccc4)cc3)c3c(N)n[nH]c(=O)c32)C1` [Example 53]: less than 0.1 µM. Same read-out and setting: as for `Cc1ccn2c(=O)c(-c3cccc(-c4cc(Nc5ccc(N6CCN(C)CC6)cn5)c(=O)n(C)c4)c3C)cnc2c1` [Example 6], the figure is 1 to 10 µM; as for `C=CC(=O)Nc1cccc2c1cnn2-c1nc(Nc2ccc(OCCOC)cc2)ncc1F` [Example 13], 1 to 10 µM. For the compound `C=CC(=O)N1CCC[C@@H](Nc2ncnc(N)c2C(=O)c2ccc(N(C)c3ccccc3)cc2)C1` [Example 3], the IC50 lay in the range of 1 to 10 µM. Same read-out and setting: as for `C=CC(=O)N1CCC[C@@H](Nc2ncnc(N)c2-n2ncc3cc(OCCOC)ccc32)C1` [Example 19], the figure is 1 to 10 µM; as for `C=CC(=O)N1CCC[C@@H](Nc2ncnc(N)c2C(=O)c2ccc(Nc3ccccc3)cc2)C1` [Example 4], 1 to 10 µM; as for `C=CC(=O)N1CCC[C@@H](Nc2ncnc3[nH]c(=O)c(-c4ccccc4)cc23)C1` [Example 2], 1 to 10 µM. Still for that read-out and setting: as for `C=CC(=O)N1CCC[C@@H](n2nc(-c3ccc(C(=O)N4CCCC4)cc3)c3c(N)n[nH]c(=O)c32)C1` [Example 66], the figure is less than 0.1 µM. `C=CC(=O)N1CCCC(n2c(=O)c(-c3ccc(Oc4ccccc4)cc3)cc3c(N)ncnc32)C1` (stereo not shown) [Example 30]: the IC50 lay in the range of 0.1 to 1 µM. On the same count and under the same terms, as for `C=CC(=O)N1CCC[C@@H](n2nc(-c3ccc(Oc4ccccn4)cc3)c3c(N)n[nH]c(=O)c32)C1` [Example 32], the figure is less than 0.1 µM; as for `C=CC(=O)N1CCCC(n2nc(-c3ccc(Oc4ccccc4)cc3)c3c(N)nn(CCO)c(=O)c32)C1` (stereo not shown) [Example 50], 0.1 to 1 µM; as for `C=CS(=O)(=O)N1CCC[C@@H](n2nc(-c3ccc(Oc4ccccc4)cc3)c3c(N)n[nH]c(=O)c32)C1` [Example 77], less than 0.1 µM. The same measure, in the same setting: the same measure for `C=CC(=O)N[C@H]1CC[C@@H](n2nc(-c3ccc(Oc4ccccc4F)cc3)c3c(N)n[nH]c(=O)c32)CC1` [Example 83]: less than 0.1 µM; for `C=CC(=O)N1CC[C@@H](n2nc(-c3ccc(Oc4ccccc4)cc3)c3c(N)n[nH]c(=O)c32)C1` [Example 60]: less than 0.1 µM; for `COCCOc1ccc(Nc2ncc3[nH]c(CCN)nc3n2)cc1` [Example 23]: 1 to 10 µM. Still for that read-out and setting: the same measure for `C=CC(=O)N[C@H]1CC[C@H](n2nc(-c3ccc(Oc4ccccc4)cc3)c3c(N)n[nH]c(=O)c32)CC1` [Example 63]: less than 0.1 µM. As to `C=CS(=O)(=O)N[C@H]1CC[C@@H](n2nc(-c3ccc(Oc4ccccn4)cc3)c3c(N)n[nH]c(=O)c32)CC1` [Example 39], the IC50 was less than 0.1 µM. `C=CC(=O)N1CCCC(n2nc(-c3ccc(Oc4ccccc4)cc3)c3c(N)nn(C4CC4)c(=O)c32)C1` (stereo not shown) [Example 52]: the IC50 was less than 0.1 µM. On the same count and under the same terms, the same measure for `C=CC(=O)N1CCC[C@@H](n2nc(-c3ccc(Oc4cc(C)ccn4)cc3)c3c(N)n[nH]c(=O)c32)C1` [Example 89]: less than 0.1 µM; for `CN(C)C/C=C/C(=O)N(C)CCn1nc(-c2ccc(Oc3ccccc3)cc2)c2c(N)n[nH]c(=O)c21` [Example 34]: less than 0.1 µM; for `Cc1c(-c2cc(Nc3ccc(C4C(=O)NCCN4C)cc3)c(=O)n(C)c2)cccc1-c1ccc(-c2ccccc2)n(C)c1=O` (stereo not shown) [Example 12]: 1 to 10 µM.

With `C=CC(=O)N1CCCC(n2nc(-c3ccc(Oc4ccccc4)cc3)c3cc4c(N)noc4cc32)C1` (stereo not shown) [Example 107], the IC50 is 1 to 10 µM. Still for that read-out and setting: as for `C=CC(=O)N1CCC[C@@H](Nc2ncnc(N)c2-n2ncc3cc(Oc4ccccc4)ccc32)C1` [Example 18], the figure is 1 to 10 µM; as for `C=CC(=O)N1CCCC(n2nc(-c3ccc(Oc4ccccc4C)cc3)c3c(N)n[nH]c(=O)c32)C1` (stereo not shown) [Example 54], less than 0.1 µM.

Source of the values: patent US10662174B2, “BTK inhibitor” (Hubei Bio-Pharmaceutical Industrial Technological Institute …, priority 2015, dated 2020).
